Reference: PMC5513037, “Examining the influence of specificity ligands and ATP-competitive ligands on the overall effectiveness of bivalent kinase inhibitors” (Proteome Science, 2017)

How the values were obtained:
Assay in all cases: KAM-matrix competition in K562 lysate;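 for 0.001 uM KAM: median log10 fold change of treatment over DMSO control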;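 for 0.01 uM KAM: median log10 fold change of treatment over DMSO control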;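 for 0.1 uM KAM: median log10 fold change of treatment over DMSO control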;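 for 1 uM KAM: median log10 fold change of treatment over DMSO control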;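 for 10 uM KAM: median log10 fold change of treatment over DMSO control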
Format in all cases: binding
[1] = target: T1, PRKCQ (Homo sapiens, UniProt Q04759)
T1 construct: endogenous in cells; host or cells: K562
T1 sequence (Q04759 whole entry): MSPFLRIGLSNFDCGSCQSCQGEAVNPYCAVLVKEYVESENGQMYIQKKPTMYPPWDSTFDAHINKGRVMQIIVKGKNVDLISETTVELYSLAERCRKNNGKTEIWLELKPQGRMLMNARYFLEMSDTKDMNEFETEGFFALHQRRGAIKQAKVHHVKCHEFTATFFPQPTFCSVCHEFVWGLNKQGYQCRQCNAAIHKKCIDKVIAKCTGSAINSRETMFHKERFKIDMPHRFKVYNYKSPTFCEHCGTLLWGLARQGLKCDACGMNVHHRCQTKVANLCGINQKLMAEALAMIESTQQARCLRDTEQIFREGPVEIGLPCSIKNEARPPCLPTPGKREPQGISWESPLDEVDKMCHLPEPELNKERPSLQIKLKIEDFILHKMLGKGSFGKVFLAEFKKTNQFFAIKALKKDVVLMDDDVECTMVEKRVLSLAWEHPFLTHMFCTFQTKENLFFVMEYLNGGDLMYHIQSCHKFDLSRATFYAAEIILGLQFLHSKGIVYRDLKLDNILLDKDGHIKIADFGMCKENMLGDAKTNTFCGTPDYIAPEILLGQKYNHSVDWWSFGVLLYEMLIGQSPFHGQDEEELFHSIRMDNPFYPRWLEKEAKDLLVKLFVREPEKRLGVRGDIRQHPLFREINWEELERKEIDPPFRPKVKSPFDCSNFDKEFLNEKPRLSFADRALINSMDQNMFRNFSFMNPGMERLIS
Protocol: (§1) Supplement 12953_2017_125_MOESM1_ESM.zip/MS_Supp Info.xlsx, sheet "KAM" | column: 10 uM KAM; 1 uM KAM; 0.1 uM KAM; 0.01 uM KAM; 0.001 uM KAM; RB50

[2] = target: T2, MAP3K6 (Homo sapiens, UniProt O95382)
T2 construct: endogenous in cells; host or cells: K562
T2 sequence (O95382 1-1288): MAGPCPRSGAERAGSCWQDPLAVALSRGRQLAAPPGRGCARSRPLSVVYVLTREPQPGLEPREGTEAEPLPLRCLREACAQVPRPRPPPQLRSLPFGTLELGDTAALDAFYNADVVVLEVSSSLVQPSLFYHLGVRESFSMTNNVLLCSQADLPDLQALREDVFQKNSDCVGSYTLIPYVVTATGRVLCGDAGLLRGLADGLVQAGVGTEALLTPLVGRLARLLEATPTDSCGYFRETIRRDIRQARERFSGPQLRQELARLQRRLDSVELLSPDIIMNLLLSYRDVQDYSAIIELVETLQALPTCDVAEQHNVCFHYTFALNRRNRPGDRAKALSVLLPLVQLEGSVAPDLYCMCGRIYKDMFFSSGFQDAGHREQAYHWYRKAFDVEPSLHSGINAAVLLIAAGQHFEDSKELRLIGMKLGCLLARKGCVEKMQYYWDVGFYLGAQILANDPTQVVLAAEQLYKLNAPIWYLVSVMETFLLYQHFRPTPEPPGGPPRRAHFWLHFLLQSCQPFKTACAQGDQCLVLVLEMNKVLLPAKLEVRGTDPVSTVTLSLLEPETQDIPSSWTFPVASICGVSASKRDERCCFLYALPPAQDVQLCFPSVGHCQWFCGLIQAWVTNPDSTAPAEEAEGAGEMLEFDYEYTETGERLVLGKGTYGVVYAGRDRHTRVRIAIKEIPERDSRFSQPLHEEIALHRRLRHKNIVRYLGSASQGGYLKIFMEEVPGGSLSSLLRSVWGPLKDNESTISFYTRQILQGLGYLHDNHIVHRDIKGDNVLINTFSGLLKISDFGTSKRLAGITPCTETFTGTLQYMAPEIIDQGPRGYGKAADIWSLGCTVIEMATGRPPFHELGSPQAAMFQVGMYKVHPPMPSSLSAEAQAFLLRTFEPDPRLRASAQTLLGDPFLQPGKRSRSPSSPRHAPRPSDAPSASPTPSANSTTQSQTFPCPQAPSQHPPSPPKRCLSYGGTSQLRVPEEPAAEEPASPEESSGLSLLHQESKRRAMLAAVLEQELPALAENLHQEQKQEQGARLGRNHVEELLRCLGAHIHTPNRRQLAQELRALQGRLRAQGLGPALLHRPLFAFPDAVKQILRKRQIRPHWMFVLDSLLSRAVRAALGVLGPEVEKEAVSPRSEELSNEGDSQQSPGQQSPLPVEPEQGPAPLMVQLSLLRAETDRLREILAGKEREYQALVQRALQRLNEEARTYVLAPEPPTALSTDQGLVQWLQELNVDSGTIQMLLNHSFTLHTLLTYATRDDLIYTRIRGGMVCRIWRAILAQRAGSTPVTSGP
Protocol: as §1

[3] = target: T3, SLK (Homo sapiens, UniProt Q9H2G2)
T3 construct: endogenous in cells; host or cells: K562
T3 sequence (Q9H2G2 whole entry): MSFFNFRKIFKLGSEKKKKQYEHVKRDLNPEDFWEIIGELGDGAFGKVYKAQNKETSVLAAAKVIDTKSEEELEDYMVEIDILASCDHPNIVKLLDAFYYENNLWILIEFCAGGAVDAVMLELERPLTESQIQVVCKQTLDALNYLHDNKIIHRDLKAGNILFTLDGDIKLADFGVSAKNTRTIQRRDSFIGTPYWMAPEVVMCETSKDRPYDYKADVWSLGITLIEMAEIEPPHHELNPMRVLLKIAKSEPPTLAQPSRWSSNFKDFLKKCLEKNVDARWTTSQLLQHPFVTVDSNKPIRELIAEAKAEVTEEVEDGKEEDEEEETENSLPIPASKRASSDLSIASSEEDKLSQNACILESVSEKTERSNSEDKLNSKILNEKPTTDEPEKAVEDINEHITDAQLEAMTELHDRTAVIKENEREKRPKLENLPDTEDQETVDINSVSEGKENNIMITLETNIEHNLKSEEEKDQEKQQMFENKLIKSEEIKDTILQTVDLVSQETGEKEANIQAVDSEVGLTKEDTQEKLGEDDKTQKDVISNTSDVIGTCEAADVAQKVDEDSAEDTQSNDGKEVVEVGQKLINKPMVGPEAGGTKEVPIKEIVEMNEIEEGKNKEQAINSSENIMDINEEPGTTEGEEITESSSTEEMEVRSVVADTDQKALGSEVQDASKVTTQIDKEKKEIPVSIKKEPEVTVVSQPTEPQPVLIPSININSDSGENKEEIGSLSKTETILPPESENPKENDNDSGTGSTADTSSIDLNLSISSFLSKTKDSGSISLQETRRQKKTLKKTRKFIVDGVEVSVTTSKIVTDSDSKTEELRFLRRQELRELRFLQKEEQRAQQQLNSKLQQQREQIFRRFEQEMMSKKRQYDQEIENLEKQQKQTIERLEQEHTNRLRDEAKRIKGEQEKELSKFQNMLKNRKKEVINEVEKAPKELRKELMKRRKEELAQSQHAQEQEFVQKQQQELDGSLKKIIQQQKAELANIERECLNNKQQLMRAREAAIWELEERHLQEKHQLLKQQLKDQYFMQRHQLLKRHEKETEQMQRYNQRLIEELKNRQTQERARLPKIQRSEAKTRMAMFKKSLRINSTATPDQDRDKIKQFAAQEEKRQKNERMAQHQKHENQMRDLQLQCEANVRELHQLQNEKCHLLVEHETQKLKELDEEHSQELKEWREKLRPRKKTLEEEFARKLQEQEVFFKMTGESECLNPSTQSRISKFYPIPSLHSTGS
Protocol: as §1

[4] = target: T4, HUNK (Homo sapiens, UniProt P57058);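 for 0.001 uM KAM: median log10 fold change of treatment over DMSO control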;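 for 0.01 uM KAM: median log10 fold change of treatment over DMSO control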;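 for 0.1 uM KAM: median log10 fold change of treatment over DMSO control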;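 for 1 uM KAM: median log10 fold change of treatment over DMSO control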;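 for 10 uM KAM: median log10 fold change of treatment over DMSO control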
T4 construct: endogenous in cells; host or cells: K562
T4 sequence (P57058 1-714): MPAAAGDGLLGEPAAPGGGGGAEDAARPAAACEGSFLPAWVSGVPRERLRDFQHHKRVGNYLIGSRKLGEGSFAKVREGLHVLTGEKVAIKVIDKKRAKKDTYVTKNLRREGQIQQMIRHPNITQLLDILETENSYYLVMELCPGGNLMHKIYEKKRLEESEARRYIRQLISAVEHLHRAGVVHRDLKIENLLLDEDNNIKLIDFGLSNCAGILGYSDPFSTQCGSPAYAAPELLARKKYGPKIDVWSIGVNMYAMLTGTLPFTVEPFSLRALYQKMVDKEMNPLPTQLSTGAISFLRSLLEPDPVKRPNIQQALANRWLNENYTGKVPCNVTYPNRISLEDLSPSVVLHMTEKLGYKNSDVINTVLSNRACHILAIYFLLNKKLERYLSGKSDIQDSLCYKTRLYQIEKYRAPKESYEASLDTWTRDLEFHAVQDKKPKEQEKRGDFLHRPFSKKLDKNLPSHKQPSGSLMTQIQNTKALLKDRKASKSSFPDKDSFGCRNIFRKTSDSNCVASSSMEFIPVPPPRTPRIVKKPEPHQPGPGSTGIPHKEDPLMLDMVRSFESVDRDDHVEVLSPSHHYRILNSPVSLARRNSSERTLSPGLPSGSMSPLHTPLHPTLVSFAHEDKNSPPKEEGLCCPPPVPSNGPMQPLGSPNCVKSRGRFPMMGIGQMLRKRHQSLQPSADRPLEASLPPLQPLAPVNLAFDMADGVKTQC
Protocol: as §1

[5] = target: T5, MINK1 (Homo sapiens, UniProt Q8N4C8)
T5 construct: endogenous in cells; host or cells: K562
T5 sequence (Q8N4C8 whole entry): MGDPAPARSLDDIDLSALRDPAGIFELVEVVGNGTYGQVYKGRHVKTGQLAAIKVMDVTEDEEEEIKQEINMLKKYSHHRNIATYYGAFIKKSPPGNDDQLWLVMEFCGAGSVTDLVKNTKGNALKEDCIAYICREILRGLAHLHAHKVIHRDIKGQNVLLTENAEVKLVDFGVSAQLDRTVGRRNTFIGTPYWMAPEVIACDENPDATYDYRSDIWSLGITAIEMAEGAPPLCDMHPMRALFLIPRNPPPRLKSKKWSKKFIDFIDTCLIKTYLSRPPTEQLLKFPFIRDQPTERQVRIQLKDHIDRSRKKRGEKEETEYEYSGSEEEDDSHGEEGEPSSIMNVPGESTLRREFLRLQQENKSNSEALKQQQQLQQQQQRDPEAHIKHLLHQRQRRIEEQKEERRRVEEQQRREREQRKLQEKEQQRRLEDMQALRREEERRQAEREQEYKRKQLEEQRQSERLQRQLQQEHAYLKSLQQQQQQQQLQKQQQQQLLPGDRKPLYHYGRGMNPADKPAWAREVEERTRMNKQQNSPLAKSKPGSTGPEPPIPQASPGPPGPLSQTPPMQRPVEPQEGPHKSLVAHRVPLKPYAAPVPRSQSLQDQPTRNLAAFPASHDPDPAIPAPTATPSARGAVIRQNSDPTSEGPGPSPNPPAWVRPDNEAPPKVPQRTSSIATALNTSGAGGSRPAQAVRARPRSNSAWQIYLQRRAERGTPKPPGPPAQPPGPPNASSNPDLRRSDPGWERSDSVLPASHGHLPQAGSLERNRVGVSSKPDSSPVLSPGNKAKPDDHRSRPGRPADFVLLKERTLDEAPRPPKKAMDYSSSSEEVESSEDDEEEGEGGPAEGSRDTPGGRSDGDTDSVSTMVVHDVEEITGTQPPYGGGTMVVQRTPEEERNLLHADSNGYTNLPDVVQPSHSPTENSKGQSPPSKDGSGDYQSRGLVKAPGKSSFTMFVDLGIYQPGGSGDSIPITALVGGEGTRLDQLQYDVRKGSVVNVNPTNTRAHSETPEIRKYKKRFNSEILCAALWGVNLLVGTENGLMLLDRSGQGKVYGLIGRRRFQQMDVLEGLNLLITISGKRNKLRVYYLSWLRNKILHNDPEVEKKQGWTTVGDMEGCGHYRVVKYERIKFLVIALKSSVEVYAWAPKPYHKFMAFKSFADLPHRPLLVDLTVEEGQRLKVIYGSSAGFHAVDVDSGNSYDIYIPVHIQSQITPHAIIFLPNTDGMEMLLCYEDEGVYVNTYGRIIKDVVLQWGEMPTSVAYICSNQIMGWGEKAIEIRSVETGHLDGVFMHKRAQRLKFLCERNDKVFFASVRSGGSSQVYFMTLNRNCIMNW
Protocol: as §1

[6] = target: T6, MAP4K4 (Homo sapiens, UniProt O95819);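 for 0.001 uM KAM: median log10 fold change of treatment over DMSO control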;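 for 0.01 uM KAM: median log10 fold change of treatment over DMSO control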;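 for 0.1 uM KAM: median log10 fold change of treatment over DMSO control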;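 for 1 uM KAM: median log10 fold change of treatment over DMSO control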;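 for 10 uM KAM: median log10 fold change of treatment over DMSO control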
T6 construct: endogenous in cells; host or cells: K562
Protocol: as §1

[7] = target: T7, ROCK1 (Homo sapiens, UniProt Q13464);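 for 0.001 uM KAM: median log10 fold change of treatment over DMSO control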;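 for 0.01 uM KAM: median log10 fold change of treatment over DMSO control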;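 for 0.1 uM KAM: median log10 fold change of treatment over DMSO control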;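 for 1 uM KAM: median log10 fold change of treatment over DMSO control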;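 for 10 uM KAM: median log10 fold change of treatment over DMSO control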
T7 construct: endogenous in cells; host or cells: K562
T7 sequence (Q13464 whole entry): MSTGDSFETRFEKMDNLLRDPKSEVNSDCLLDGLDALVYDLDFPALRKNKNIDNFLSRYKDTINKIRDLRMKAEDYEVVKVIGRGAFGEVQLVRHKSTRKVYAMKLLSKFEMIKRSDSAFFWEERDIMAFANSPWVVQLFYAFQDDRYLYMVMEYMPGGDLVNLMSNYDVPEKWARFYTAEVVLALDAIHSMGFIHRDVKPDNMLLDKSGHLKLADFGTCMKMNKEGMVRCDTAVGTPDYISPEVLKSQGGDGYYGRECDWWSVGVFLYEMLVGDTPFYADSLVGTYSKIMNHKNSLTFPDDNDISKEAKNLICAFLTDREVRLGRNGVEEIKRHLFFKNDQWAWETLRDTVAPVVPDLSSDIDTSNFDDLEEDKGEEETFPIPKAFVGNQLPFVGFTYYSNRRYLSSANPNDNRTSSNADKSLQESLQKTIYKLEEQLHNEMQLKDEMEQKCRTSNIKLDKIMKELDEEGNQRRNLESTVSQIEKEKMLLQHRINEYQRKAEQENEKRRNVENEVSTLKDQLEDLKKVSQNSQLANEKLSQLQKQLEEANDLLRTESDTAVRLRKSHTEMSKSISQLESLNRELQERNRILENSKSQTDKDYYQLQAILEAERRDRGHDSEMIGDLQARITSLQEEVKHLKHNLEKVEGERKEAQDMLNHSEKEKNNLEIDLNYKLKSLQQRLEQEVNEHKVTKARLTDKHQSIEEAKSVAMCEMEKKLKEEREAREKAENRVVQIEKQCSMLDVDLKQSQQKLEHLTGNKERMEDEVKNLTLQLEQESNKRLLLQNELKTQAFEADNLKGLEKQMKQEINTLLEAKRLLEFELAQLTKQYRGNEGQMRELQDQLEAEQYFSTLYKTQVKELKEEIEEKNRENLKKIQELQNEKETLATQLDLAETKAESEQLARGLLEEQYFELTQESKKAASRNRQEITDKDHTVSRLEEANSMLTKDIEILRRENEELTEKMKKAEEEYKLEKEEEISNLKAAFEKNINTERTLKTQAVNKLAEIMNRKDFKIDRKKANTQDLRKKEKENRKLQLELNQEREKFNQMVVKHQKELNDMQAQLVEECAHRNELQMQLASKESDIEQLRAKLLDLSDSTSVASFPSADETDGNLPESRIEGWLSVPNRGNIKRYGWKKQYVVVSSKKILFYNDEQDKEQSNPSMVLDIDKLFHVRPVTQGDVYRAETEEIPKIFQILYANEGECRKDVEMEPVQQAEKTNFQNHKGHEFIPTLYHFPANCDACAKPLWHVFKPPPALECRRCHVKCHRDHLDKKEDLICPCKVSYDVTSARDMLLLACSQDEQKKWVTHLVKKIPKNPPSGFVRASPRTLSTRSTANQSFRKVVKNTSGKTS
Protocol: as §1

[8] = read-out: RB50 (the source's name)
[9] = KAM 0.001-10 uM, read-out: RB50 (the source's name)

## N#CCc1ccc(Nc2nc(NCCCN)cc(Nc3cc(C4CC4)[nH]n3)n2)cc1 [KAM]
[1]; 0.001 uM KAM
  median Log10 fold change: -0.05924
[1]; 0.01 uM KAM
  median Log10 fold change: -0.02167
[1]; 0.1 uM KAM
  median Log10 fold change: -0.1204
[1]; 1 uM KAM
  median Log10 fold change: -0.1965
[1]; 10 uM KAM
  median Log10 fold change: -0.3734
[1]; [8]
  IC50: 3.6 µM
[2]; 0.001 uM KAM
  median Log10 fold change: -0.04109
[2]; 0.01 uM KAM
  median Log10 fold change: -0.01116
[2]; 0.1 uM KAM
  median Log10 fold change: -0.09429
[2]; 1 uM KAM
  median Log10 fold change: -0.1699
[2]; 10 uM KAM
  median Log10 fold change: -0.3363
[2]; [8]
  IC50: 5.37 µM
[3]; 0.001 uM KAM
  median Log10 fold change: 0.008335
[3]; 0.01 uM KAM
  median Log10 fold change: -0.005793
[3]; 0.1 uM KAM
  median Log10 fold change: -0.3118
[3]; 1 uM KAM
  median Log10 fold change: -0.5551
[3]; 10 uM KAM
  median Log10 fold change: -0.6917
[3]; [8]
  IC50: 0.139 µM
[4]; [9]
  IC50: > 10 µM
[4]; relative to 0 uM KAM = 0
  0.001 uM KAM: 0.08544
  0.01 uM KAM: 0.04291
  0.1 uM KAM: 0.1545
  1 uM KAM: 0.0644
  10 uM KAM: 0.1031
[5]; 0.001 uM KAM
  median Log10 fold change: -0.05922
[5]; 0.01 uM KAM
  median Log10 fold change: -0.00678
[5]; 0.1 uM KAM
  median Log10 fold change: -0.2189
[5]; 1 uM KAM
  median Log10 fold change: -0.4489
[5]; 10 uM KAM
  median Log10 fold change: -0.4879
[5]; [8]
  IC50: 0.329 µM
[6]; [9]
  IC50: > 10 µM
[6]; relative to 0 uM KAM = 0
  0.001 uM KAM: -0.04181
  0.01 uM KAM: -0.007384
  0.1 uM KAM: -0.1078
  1 uM KAM: -0.1201
  10 uM KAM: -0.1434
[7]; [9]
  IC50: > 10 µM
[7]; relative to 0 uM KAM = 0
  0.001 uM KAM: -0.0607
  0.01 uM KAM: -0.006672
  0.1 uM KAM: -0.08063
  1 uM KAM: -0.07367
  10 uM KAM: -0.1223
